From patent publication US7628765B2, “Increasing retrievable cells from a breast duct” (Cytyc Corporation, priority 2001, dated 2009) come the findings set out here.

For this experiment, the system named is breast ducts of live rabbits. The experiment can be described thus: Ductal fluid collection after intraductal injection of mannitol solution in live rabbit. Particulars: for recovery: out-flow liquid checked about an hour later. It counts as in vivo, New Zealand rabbit. The procedure:
The objective of these experiments was to test the effects of the introduction of a solution containing mannitol on the secretion of fluid from the breast ducts of live rabbits. New Zealand rabbit #3242, female, from Kraelik Farm in CA weighing 4.1 kg was used. The rabbit was anesthetized by injection of 200 mg of ketamine and 40 mg of Zylazine. A second injection of 100 mg of ketamine and 20 mg of xylazine was made 2 hours later to maintain the rabbit in a deep plane of anesthesia. The thorax and abdomen of the rabbit was shaved to expose the breasts and nipples.
A single lumen blue color catheter (O.D. 0.23″ ID 0.017; O.D. at the tip 0.011″-0.012″) was inserted into a duct in each nipple. Three nipples were tested, and 2 ducts per nipple were accessed with a catheter. The nipples were identified A, B, and C.
A duct on nipple A was injected with 0.20 ml of a 12.5% solution of D-Mannitol in H2O (available from Sigma Chemicals, St. Louis, Mo. cat# M-9546 lot 6710402: C6H14O6 FW 182.2) with a single catheter. The control duct on nipple A was injected with 0.20 ml of phosphate buffered saline (PBS). A microfuge tube was attached to the end of each catheter to collect out flow liquid. Ten minutes later 0.2 ml of a 12.5% solution of D-Mannitol in H2O was injected into the first duct and the second duct was injected with 0.20 ml of phosphate buffered saline, for a total volume injected in each duct of 0.40 ml.
A duct on nipple B was injected with 0.5 ml of a 12.5% solution of D-Mannitol in H2O with a single catheter. The control duct on nipple B was injected with 0.50 ml of phosphate buffered saline (PBS). A microfuge tube was attached to the end of each catheter to collect out-flow liquid.
A duct on nipple C was injected with 0.7 ml of a 12.5% solution of D-Mannitol in H2O with a single catheter. The control duct on nipple C was injected with 0.70 ml of phosphate buffered saline (PBS). A microfuge tube was attached to the end of each catheter to collect out flow liquid.
About an hour after the fluid containing mannitol or PBS was injected into the ducts via the catheters, the microfuge tubes were checked for whether any fluid was returned.

Take `OC[C@@H](O)[C@@H](O)[C@H](O)[C@H](O)CO` [mannitol, D-Mannitol]: where the note is “ducts injected with 12.5% mannitol solution, 0.4-0.7 ml, PBS control 1 out of 3”, the “ducts from which fluid can be collected” value is given as “three out of three”. Also, the recovery was found to be 310 ul liquid (nipple A, duct A1, 0.4 ml total of 12.5% solution (2 x 0.2 ml, 10 min apart) injected intraductally); 490 ul liquid (nipple B, duct B1, 0.5 ml of 12.5% solution injected intraductally); 280 ul liquid (nipple C, duct C1, 0.7 ml of 12.5% solution injected intraductally).
